Target: T1, SHP2 PTP domain (Homo sapiens, UniProt Q06124)
T1 construct: Human SHP2 PTP domain (A237–I529) expression constructs; His-tag; made in house; host or cells: E. coli BL21 (DE3)
T1 sequence (Q06124 237-529): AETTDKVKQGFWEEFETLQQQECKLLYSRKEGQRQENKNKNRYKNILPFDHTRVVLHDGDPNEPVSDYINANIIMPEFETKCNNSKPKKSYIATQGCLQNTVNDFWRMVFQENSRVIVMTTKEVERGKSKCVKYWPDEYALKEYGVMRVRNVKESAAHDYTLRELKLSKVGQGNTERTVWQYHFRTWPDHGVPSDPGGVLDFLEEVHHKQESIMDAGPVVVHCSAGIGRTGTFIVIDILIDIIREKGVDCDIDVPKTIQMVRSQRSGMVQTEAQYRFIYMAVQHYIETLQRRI
Assay: SHP2 inhibition assay (DiFMUP) with SHP2-PTP; HTS and dose-response
Assay type: biochemical
Settings: 0.5 nM SHP2-PTP, DiFMUP substrate, 30 min co-incubation at 20°C; read-out: IC50 against the SHP2 PTP domain
Protocol: Human SHP2 PTP domain (A237–I529) expression constructs were engineered by cloning PTPN11 (NP_002825.3) into the pET30 plasmid with a His-tag to support further protein purification. The K366A/Q510A double mutation was introduced into the wild-type template using a site-directed mutagenesis kit (E0554S; New England Biolabs). The expression constructs were sequenced and transformed into BL21 (DE3)-competent cells. E. coli cells were grown at 37°C in an LB culture medium in the presence of […] kanamycin until the OD600 reached 1.0. The medium was then cooled to 18°C and 1 mM isopropyl ß-D-1-thiogalactopyranoside (IPTG) was added to induce protein expression overnight.
A surrogate phosphatase substrate, 6,8-difluoro-4-methylumbelliferyl phosphate (DiFMUP, Thermo Fisher, #D22065), was used to monitor the catalytic activity of SHP2 in a prompt fluorescence assay format. Specifically, the DiFMUP phosphatase assay was performed at 20°C in a 384-well Griener CELLSTAR black polystyrene plate in the buffer condition of 60 mM HEPES (pH7.5), 75 mM NaCl, 75 mM KCl, 1 mM EDTA, 0.05% Tween-20, 5 mM dithiothreitol (DTT). The final reaction volume was 25 μL. NP compound libraries were obtained from TargetMol at a stock concentration of 10 mM, dissolved in DMSO. The purity of the active compound LIN used in this study is 96.27% as tested by HPLC analysis. The HPLC traces is shown in Supporting Information. We co-incubated 0.5 nM of SHP2-PTP enzyme with tested NPs for 30 min at 20°C, followed by the addition of DiFMUP into the reaction. After 30 min, 5 μL of bpV(phen) solution was added to quench the dephosphorylation reaction. The signals were read on a plate reader (SpectraMax iD5, Molecular Devices). The excitation and emission wavelengths were 340 and 450 nm, respectively. The inhibitor dose-response curves were evaluated using a normalised IC50 regression curve fitting with control-based normalisation. For the full-length SHP2 inhibition assay, 0.5 μM of a bisphosphorylated pIRS-1 peptide (ChinaPeptides Ltd. Shanghai) was added for partial SHP2 activation. […]

IC50: 12.6 ± 4.2 µM
Compound: C=C1C2CC2[C@@]2(C)Cc3occ(C)c3C(O)C12 (stereo partly shown) [Lindenenol, lindenenol]
